PubChem BioAssay AID1918942 (Molecular Pharmacology Branch, DTP, NCI, 2023)

Test system: 743489-274-T-PDC complex spheroid viability
Test: Anticancer human tumor 743489-274-T-PDC patient-derived renal cell carcinoma cell line growth inhibition
Conditions: for IC50: curve of first compound; for viability, T/C: stronger effect = lower value
Summary of the method: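 Complex spheroids of tumor cells with HUVEC and human MSCs, exposed to iadademstat combined with other agents. Each agent tested in half-log steps from near clinical Cmax (else 10 microM top), DMSO ≤0.25%.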

[1] = second compound 0.1 µM, first compound 0.0316 µM
[2] = second compound 0.1 µM, first compound 0.1 µM
[3] = second compound 0.1 µM, first compound 0.316 µM
[4] = second compound 0.1 µM, first compound 1 µM
[5] = second compound 0.1 µM, first compound 3.16 µM
[6] = second compound 0.1 µM, first compound 10 µM
[7] = second compound 0.316 µM, first compound 0.0316 µM
[8] = second compound 0.316 µM, first compound 0.1 µM
[9] = second compound 0.316 µM, first compound 0.316 µM
[10] = second compound 0.316 µM, first compound 1 µM
[11] = second compound 0.316 µM, first compound 3.16 µM
[12] = second compound 0.316 µM, first compound 10 µM
[13] = second compound 1 µM, first compound 0.0316 µM
[14] = second compound 1 µM, first compound 0.1 µM
[15] = second compound 1 µM, first compound 0.316 µM
[16] = second compound 1 µM, first compound 1 µM
[17] = second compound 1 µM, first compound 3.16 µM
[18] = second compound 1 µM, first compound 10 µM
[19] = second compound 3.16 µM, first compound 0.0316 µM
[20] = second compound 3.16 µM, first compound 0.1 µM
[21] = second compound 3.16 µM, first compound 0.316 µM
[22] = second compound 3.16 µM, first compound 1 µM
[23] = second compound 3.16 µM, first compound 3.16 µM
[24] = second compound 3.16 µM, first compound 10 µM
[25] = second compound 10 µM, first compound 0.0316 µM
[26] = second compound 10 µM, first compound 0.1 µM
[27] = second compound 10 µM, first compound 0.316 µM
[28] = second compound 10 µM, first compound 1 µM
[29] = second compound 10 µM, first compound 3.16 µM
[30] = second compound 10 µM, first compound 10 µM
[31] = second compound 0.1 µM, first compound 0.00316 µM
[32] = second compound 0.1 µM, first compound 0.01 µM
[33] = second compound 0.316 µM, first compound 0.00316 µM
[34] = second compound 0.316 µM, first compound 0.01 µM
[35] = second compound 1 µM, first compound 0.00316 µM
[36] = second compound 1 µM, first compound 0.01 µM
[37] = second compound 3.16 µM, first compound 0.00316 µM
[38] = second compound 3.16 µM, first compound 0.01 µM
[39] = second compound 10 µM, first compound 0.00316 µM
[40] = second compound 10 µM, first compound 0.01 µM
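Also: spheroids exposed to compounds for 7 days before readout.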
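For viability, T/C in this document: 100% = DMSO vehicle control wells.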

Compound | IC50 (second compound 0.1 µM) [nM] | IC50 (second compound 0.316 µM) [nM] | IC50 (second compound 1 µM) [nM] | IC50 (second compound 3.16 µM) [nM] | IC50 (second compound 10 µM) [nM] | viability, T/C [1] [%] | viability, T/C [2] [%] | viability, T/C [3] [%] | viability, T/C [4] [%] | viability, T/C [7] [%] | viability, T/C [8] [%] | viability, T/C [9] [%] | viability, T/C [10] [%] | viability, T/C [13] [%] | viability, T/C [14] [%] | viability, T/C [15] [%] | viability, T/C [16] [%] | viability, T/C [19] [%] | viability, T/C [20] [%] | viability, T/C [21] [%] | also measured
CC(C)c1c(-c2ccccc2)nc2c(C#N)c[nH]n2c1=O + NC1CC1c1ccc(-c2cccc(O)c2)cc1 | > 10000 | > 10000 | > 10000 | > 10000 | > 10000 | 110 | 112 | 131 | 105 | 104 | 107 | 134 | 100 | 110 | 117 | 108 | 116 | 106 | 108 | 114 | viability, T/C [5]: 113%; viability, T/C [6]: 109%; viability, T/C [11]: 115%; viability, T/C [12]: 102%; viability, T/C [17]: 108%; viability, T/C [18]: 114%; viability, T/C [22]: 111%; viability, T/C [23]: 105%; viability, T/C [24]: 124%; viability, T/C [25]: 130%; viability, T/C [26]: 105%; viability, T/C [27]: 116%; viability, T/C [28]: 102%; viability, T/C [29]: 106%; viability, T/C [30]: 109%
CC1COCCN1c1cc(-c2ccnn2C)c2ccnc(-c3ccn[nH]3)c2n1 (stereo not given) + NC1CC1c1ccc(-c2cccc(O)c2)cc1 | 448 | > 1000 | 716 | 540 | 518 | 85.2 | 62.9 | 51.2 | 44.3 | 85.5 | 65.5 | 64.5 | 51.9 | 82.5 | 68.9 | 64.7 | 44.5 | 83.8 | 75.6 | 55.5 | viability, T/C [31]: 109%; viability, T/C [32]: 88%; viability, T/C [33]: 111%; viability, T/C [34]: 104%; viability, T/C [35]: 98.2%; viability, T/C [36]: 103%; viability, T/C [37]: 101%; viability, T/C [38]: 90.6%; viability, T/C [22]: 41.5%; viability, T/C [39]: 90.8%; viability, T/C [40]: 98.1%; viability, T/C [25]: 80%; viability, T/C [26]: 75%; viability, T/C [27]: 53.7%; viability, T/C [28]: 43.6%
COc1ccc([C@@H](O)c2cc(-c3ncnc4cc(N5CCOCC5)ccc34)c(F)cc2Cl)nn1 + NC1CC1c1ccc(-c2cccc(O)c2)cc1 | 643 | 979 | 833 | 611 | 918 | 101 | 93.6 | 63 | 38.6 | 99.7 | 92.7 | 68.8 | 57.4 | 94.3 | 93 | 80.2 | 43.4 | 93.6 | 94.4 | 59.4 | viability, T/C [5]: 31.9%; viability, T/C [6]: 15.4%; viability, T/C [11]: 24.1%; viability, T/C [12]: 32%; viability, T/C [17]: 25%; viability, T/C [18]: 16.8%; viability, T/C [22]: 41.2%; viability, T/C [23]: 27.5%; viability, T/C [24]: 17.4%; viability, T/C [25]: 99.1%; viability, T/C [26]: 111%; viability, T/C [27]: 74.3%; viability, T/C [28]: 49.5%; viability, T/C [29]: 27.1%; viability, T/C [30]: 16.6%
O=C(C=Cn1cnc(-c2cc(C(F)(F)F)cc(C(F)(F)F)c2)n1)NNc1cnccn1 + NC1CC1c1ccc(-c2cccc(O)c2)cc1 | > 1000 | > 1000 | > 1000 | > 1000 | > 1000 | 113 | 85.8 | 97.9 | 86.2 | 108 | 99.6 | 76.4 | 74.6 | 118 | 88 | 89.4 | 67.4 | 119 | 91.3 | 74.6 | viability, T/C [31]: 97.6%; viability, T/C [32]: 103%; viability, T/C [33]: 102%; viability, T/C [34]: 99.8%; viability, T/C [35]: 99.1%; viability, T/C [36]: 103%; viability, T/C [37]: 98.7%; viability, T/C [38]: 105%; viability, T/C [22]: 69.5%; viability, T/C [39]: 96.2%; viability, T/C [40]: 101%; viability, T/C [25]: 102%; viability, T/C [26]: 98.6%; viability, T/C [27]: 86.1%; viability, T/C [28]: 57.4%
Nc1ncn(C2CC(O)C(CO)O2)c(=O)n1 (stereo not given) + NC1CCC(NC2CC2c2ccccc2)CC1 | > 1000 | > 1000 | > 1000 | > 1000 | > 1000 | 110 | 109 | 105 | 105 | 107 | 107 | 98 | 98.4 | 114 | 92 | 105 | 105 | 108 | 95.9 | 94 | viability, T/C [31]: 107%; viability, T/C [32]: 113%; viability, T/C [33]: 122%; viability, T/C [34]: 119%; viability, T/C [35]: 107%; viability, T/C [36]: 113%; viability, T/C [37]: 127%; viability, T/C [38]: 122%; viability, T/C [22]: 97.8%; viability, T/C [39]: 104%; viability, T/C [40]: 122%; viability, T/C [25]: 131%; viability, T/C [26]: 97.2%; viability, T/C [27]: 103%; viability, T/C [28]: 97.3%
